Data reported in patent publication US20100254942A1, “HEPATITIS C ANTIVIRAL COMPOSITIONS AND METHODS” (BIOTRON LIMITED, priority 2007, published 2010).
“Also recorded” adds a separate entry of the source. Where two headings read alike, the source gives them in different places.

Legend:
[1] = test system: bovine viral diarrhea virus (BVDV) strain NADL; test: BVDV CPE-inhibition assay in MDBK cells; type: cell-based; conditions: for EC50: read-out: EC50
Protocol: The antiviral evaluation of selected BIT compounds against BVDV was outsourced to Southern Research Institute (SRI), Fredrick Md. USA. A simple cytoprotection format is used in which the antiviral efficacy of the compounds is assessed by their ability to reduce the cytopathic effect of BVDV infection in Madin-Darby bovine kidney cells (Buckwold et al., 2003)
(§1) A virus-induced cytopathogenic effects (CPE)-inhibition assay procedure was employed to evaluate compounds for antiviral activity against bovine viral diarrhea virus (BVDV) strain NADL, in Madin-Darby bovine kidney (MDBK) cells passaged in T-75 flasks (1, 2). Antiviral assays were designed to test six half-log concentrations of each compound in triplicate against the challenge virus. Cell controls (CC) containing medium alone, virus-infected cell controls (VC) containing medium and virus, drug cytotoxicity controls containing medium and each drug concentration, reagent controls containing culture medium only (no cells), and drug colorimetric controls containing drug and medium (no cells) are run simultaneously with the test samples. Human interferon-α 2b was used as a positive control compound. On the day preceding the assay, the cells were trypsinized, pelleted, counted and resuspended at 1×10^4/well in tissue culture medium in 96-well flat bottom tissue culture plates in a volume of 100 μl per well. One day following plating of cells, the wells were washed and the medium was replaced with complete medium (2% serum) containing various concentrations of test compound diluted in medium in a half-log series. A pre-titered aliquot of virus was removed from the freezer (−80° C.) just before each experiment. The virus was diluted into tissue culture medium such that the amount of virus added to each well would give complete cell killing at 6-7 days post-infection. The plates were incubated at 37° C. in a humidified atmosphere containing 5% CO2 until maximum CPE is observed in the untreated virus control cultures (˜day 7) Inhibition of CPE by the compound was determined using Cell Titer 96 (Promega). A colorimetric method for determining the number of viable cells was used. A computer program was utilized to calculate the percent of CPE reduction of the virus-infected wells and the percentage cell viability of uninfected drug control wells. […] A therapeutic (selectivity) index (TI50) for each active compound was determined by dividing the TC50 by the IC50.
(§2) Drug cytotoxicity was measured separately in uninfected cells. Eleven BIT compounds were tested in the first experiment in which the compounds were added to the cells just prior to infection and were maintained throughout the entire experiment. Two of them, BIT225 and BIT314 returned sub-micromolar IC50 values (see Table 2 below).

[2] = test system: bovine viral diarrhea virus (BVDV) strain NADL; conditions: well known from the literature; cited from earlier work
[3] = target: T1, HCV p7 ion channel protein (Hepatitis C virus genotype 1a, UniProt P27958); test: Bacterial bioassay: growth of E. coli expressing HCV p7; type: cell-based; parameters: scale not given here; conditions: cumulative averaged scores; result above zero indicates potential anti-viral activity
T1 construct: codons were optimised for expression of the p7 protein in E. coli; expressed in transfected cells; host or cells: E. coli carrying plasmid pPLp7 (pPL451 backbone, temperature-inducible)
Excerpt: The bacterial bioassay method used in the present example to test the anti-viral activity of the compounds against different viral targets was described in detail in PCT/2004/000866, incorporated in its entirety herein by reference. This assay is used in conjunction with the GBV-B and BVDV assays described below, to ensure that all active compounds are identified, some of which are active in one or the other of the assays, while some compounds may be active in both assays.
Briefly, the bacterial bio-assay for screening potential anti-HCV compounds is based on the HCV p7 ion channel protein. p7 is a small membrane protein encoded by HCV, which has a functional activity supporting viral growth and/or replication.
The p7-encoding synthetic cDNA fragment cDp7.coli, in which codons were optimised for expression of the p7 protein in E. coli, was cloned into the expression plasmid pPL451, creating the vector pPLp7, in which p7 expression is temperature inducible, as described in detail in PCT/2004/000866. Inhibition of the growth of E. coli cells expressing p7 at 37° C. was observed as an indicator of p7 ion channel function dissipating the normal Na+gradient maintained by the bacterial cells. Halos of growth around a particular compound application site indicate that the compound has inhibited expression of the p7 ion channel activity that prevents growth in the absence of the compound.
The positive controls were used in this assay to ensure that the assay was working rather than for comparison of relative activities of the compounds.

[4] = test system: GBV-B; test: GBV-B replication in primary marmoset hepatocytes (viral RNA by real-time RT-PCR); type: cell-based
Excerpt: GBV-B is the most closely related flavivirus to HCV, sharing 27-33% nucleotide sequence identity and 28% amino acid similarity over the complete polypeptide sequence. This virus represents an excellent surrogate system for HCV because it infects small New World primates and replicates efficiently in vitro in primary marmoset hepatocyte (PMH) cultures. The GBV-B homologue of HCV p7 is called p13. It is shown herein that a synthetic peptide corresponding to the two C-terminal transmembrane helices of p13 (which share the greatest homology to p7) forms a cation selective ion channel that, like the p7 channel, is blocked by amantadine (Premkumar et al., 2006). […] These observations confirm that the two homologous channels share similar, but not identical, structural features.
Selected BIT compounds—identified by bacterial assay screening for inhibitors of HCV p7—were tested for ability to inhibit GBV-B replication in primary marmoset hepatocytes (see FIG. 1). The hepatocytes were inoculated 3-days after plating with 10× TCID50 of GBV-B positive marmoset serum. […] was adsorbed for two hours, and then the cells were washed three times and cultured for two days in fresh serum-free medium (SFM) supplemented with hormones and growth factors. Virus released to the culture supernatant was measured as viral RNA copy number, as determined by real-time RT-PCR. […]

[5] = test system: Madin-Darby bovine kidney (MDBK) cells; test: Drug cytotoxicity in uninfected MDBK cells; type: cell-based; conditions: uninfected MDBK cells
Excerpt: as §1, §2

T1 sequence (P27958 747-809): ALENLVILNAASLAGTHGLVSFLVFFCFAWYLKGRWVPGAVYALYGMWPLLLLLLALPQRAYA

For `NC(=O)c1ncn([C@@H]2O[C@H](CO)[C@@H](O)[C@H]2O)n1` [Ribavirin, reference compound], the antiviral activity ([1]; 1.25 μg/ml Ribavirin alone) is listed as “no antiviral activity”, the “Antiviral activity on its own” value ([1]; alone, range up to 20 μg/ml) is listed as “only very little antiviral activity was detected; also recorded: no antiviral activity” and the “activity against BVDV on its own” value [2] is listed as “very little activity”.

With `Cn1cc(-c2cccc3cc(C(=O)NC(=N)N)ccc23)cn1` [BIT225, 5-(1-methylpyrazol-4-yl)2-naphthoylguanidine] the “Average Bacterial Assay Score HCV p7” value [3] was 1.20, the “Virus in the culture supernatant (viral RNA copy number)” value ([4]; cells pre-treated with 20 μM) was “no virus was detected” and the “Efficacy when compounds were added post-inoculation” value ([4]; post-treatment versus pre-treatment) was “reduced somewhat”. The IC50 ([1]; BVDV in MDBK cells, compound added just prior to infection and maintained, N/A = not achieved, read-out: IC50) was 0.53 µM, the EC50 ([1]; Bovine viral diarrhea virus isolates and strains, MDBK, drug tested individually against BVDV) was 0.314 µM and the EC50 ([1]; Bovine viral diarrhea virus isolates and strains, MDBK, in the presence of 5 IU/ml IFNα, Hill slope constrained) was 0.092 µM. It also gave an EC50 ([1]; Bovine viral diarrhea virus isolates and strains, MDBK, in the presence of 5 IU/ml IFNα, variable Hill slope) of 0.149 µM, an EC50 ([1]; Bovine viral diarrhea virus isolates and strains, MDBK, in the presence of 10 IU/ml IFNα, Hill slope constrained) of 0.071 µM and an EC50 ([1]; Bovine viral diarrhea virus isolates and strains, MDBK, in the presence of 10 IU/ml IFNα, variable Hill slope) of 0.125 µM. The inhibition at 0.031 µM ([1]; Bovine viral diarrhea virus isolates and strains, MDBK, 31 nM BIT225 alone) was roughly 5%, the IC50 ([1]; Bovine viral diarrhea virus isolates and strains, MDBK, Table 2a, read-out: BVDV IC50) was 1.27 µM and the IC50 ([1]; Bovine viral diarrhea virus isolates and strains, MDBK, subsequent repeat assay, read-out: IC50) was 0.33 µM. The “IC50 values (in words)” value ([1]; first experiment, Table 2) was “sub-micromolar” and the TC50 [5] was 11.6 µM.
